From ChEMBL document CHEMBL1126253, “Energy aspects of oil/water partition leading to the novel hydrophobic parameters for the analysis of quantitative structure-activity relationships” (J Med Chem, 1992)

Experiments:
[1] = Partition coefficient (logD2.0); format: physicochemical; conditions: octanol/water
[2] = log (1/C') was determined; format: ADME
Rattus norvegicus [3] = species on record: Rattus norvegicus; assay: Concentration of the drug in the kidney of rat; format: ADME, organism-based; conditions: in vivo
Rattus norvegicus [4] = species on record: Rattus norvegicus; assay: Concentration of the drug in the liver of rat; format: ADME, organism-based; conditions: in vivo
Culicidae = assay: Concentration required to kill 50% of the mosquito larva in 24 hr.; format: organism-based; conditions: in vivo

SMILES | logD ([1]; pH 2, read-out: logD) | Log 1/C [2] | Log M (Rattus norvegicus [3]) | Log M (Rattus norvegicus [4]) | further results
O=C(O)c1ccc(F)cc1 | 2.05 | 1.27 |  |  | Log LD50: -1.85
CC(C)c1ccc(C(=O)O)cc1 | 3.28 |  |  |  | 
O=C(O)c1cccc2ccccc12 [NAPHTHOIC ACID] | 2.98 |  |  |  | Log LD50: -1.46
O=C(O)c1ccc(Br)cc1 |  | 1.19 |  |  | logD [1]: 2.81; Log LD50: -2.03
CCCOc1ccc(C(=O)O)cc1 | 3.09 |  |  |  | 
CN(C)c1ccc(C(=O)O)cc1 | 1.28 |  | 0.08 | 0.17 | 
N#Cc1ccc(C(=O)O)cc1 | 1.63 |  | 1.57 | 0.62 | 
O=C(O)c1cccc(I)c1 |  | 1.29 |  |  | logD [1]: 3.13
O=C(O)c1cccc(O)c1 [3-HYDROXYBENZOIC ACID] |  | -0.99 |  |  | logD [1]: 1.55
O=C(O)c1ccc2ccccc2c1 [BETA-NAPHTOIC ACID] | 2.78 |  |  |  | Log LD50: -1.92
O=C(O)c1cccc(C(F)(F)F)c1 | 2.99 |  |  |  | 
NS(=O)(=O)c1ccc(C(=O)O)cc1 [CARZENIDE] | 0.55 |  |  |  | 
CCCc1ccc(C(=O)O)cc1 | 3.42 |  |  |  | 
O=C(O)c1ccc(C(F)(F)F)cc1 | 3.18 |  |  |  | 
O=C(O)c1cc(Cl)ccc1Cl | 2.82 | 1.63 |  |  | Log LD50: -1.77
O=C(O)c1ccc(Cl)c(Cl)c1 |  | 2.47 |  |  | logD [1]: 3.25; Log LD50: -2.28
COc1cccc(C(=O)O)c1 | 1.98 | 0.29 | 1.35 | 1.34 | 
N#Cc1cccc(C(=O)O)c1 | 1.65 |  | 0.95 | 0.69 | 
Nc1cccc(C(=O)O)c1 [3-AMINOBENZOIC ACID] | -0.79 | -1 | 1.45 | 0.76 | 
CN(C)c1cccc(C(=O)O)c1 | 0.22 |  | 0.45 | 0.2 | 
Cc1ccccc1C(=O)O [TOLUIC ACID] | 2.27 |  |  |  | 
O=C(O)c1ccc([N+](=O)[O-])cc1 [4-NITROBENZOIC ACID] |  |  | 1.02 | 0.79 | logD [1]: 1.84; Log LD50: -1.52
O=C(O)c1ccccc1Cl |  | 2.15 |  |  | Log LD50 (Culicidae): -1.62; logD [1]: 2.02
O=C(O)c1c(Cl)cccc1Cl | 1.8 |  |  |  | Log LD50: -1.22

SMILES | logD ([1]; pH 2, read-out: logD) | Log 1/C [2] | Log M (Rattus norvegicus [3]) | Log M (Rattus norvegicus [4]) | further results
O=C(O)c1cccc(Cl)c1 |  | 2.16 | 1.79 | 1.57 | logD [1]: 2.72; Log LD50: -2
CCOc1ccc(C(=O)O)cc1 |  |  | 0.89 | 0.92 | 
Cc1ccc(C(=O)O)cc1 [4-METHYLBENZOIC ACID] |  |  |  |  | logD [1]: 2.26
COc1ccc(C(=O)O)cc1 [p-ANISIC ACID] | 1.95 | -0.66 | 1 | 1.09 | Log LD50: -1.6
O=C(O)c1ccccc1F | 1.52 | 1.82 |  |  | 
O=C(O)c1cc(I)cc(I)c1I [2,3,5-TRIIODOBENZOIC ACID] | 3.45 |  |  |  | 
O=C(O)c1cccc(Br)c1 |  | 1.71 |  |  | logD [1]: 2.86
O=C(O)c1ccccc1[N+](=O)[O-] | 1.2 | 1.54 |  |  | 
Nc1ccc(C(=O)O)cc1 | 0.76 | -1.67 | 0.79 | 0.59 | Log LD50: -1.54
O=C(O)c1cccc([N+](=O)[O-])c1 |  | 0.22 | 1.23 | 0.73 | logD [1]: 1.69
O=C(O)c1ccccc1 [BENZOIC ACID] |  |  | 1.44 | 1.28 | 
CC(=O)Nc1ccc(C(=O)O)cc1 [ACEDOBEN] | 1.27 |  | -0.64 | -0.08 | 
Nc1ccccc1C(=O)O [ANTHRANILIC ACID] | 0.51 |  |  |  | 
O=C(O)c1ccccc1I | 2.45 | 1.19 |  |  | 
O=C(O)c1ccccc1Br | 2.14 | 1.9 |  |  | 
O=C(O)c1ccc(I)cc1 |  | 0.99 |  |  | logD [1]: 3.05; Log LD50: -2.31
CC(=O)Nc1cccc(C(=O)O)c1 | 1.32 |  | -0.1 | -0.29 | 
CCCCc1ccc(C(=O)O)cc1 | 3.63 |  |  |  | 
O=Cc1ccc(C(=O)O)cc1 | 1.76 |  |  |  | 
[N-]=[N+]=Nc1ccc(C(=O)O)cc1 | 2.54 |  |  |  | 
NCc1ccc(C(=O)O)cc1 [AMINOMETHYLBENZOIC ACID] | 1.03 |  |  |  | 
Cc1cccc(C(=O)O)c1 |  |  | 1.83 | 1.71 | 
CCc1ccc(C(=O)O)cc1 | 2.89 |  |  |  | 
O=C(O)c1ccc(O)cc1 [PARABEN] | 1.41 | -1.69 |  |  | Log LD50: -1.29
